# Source: US20220339144A1, “PYRIDINYL INDOLE COMPOUNDS AND METHODS OF USE THEREOF” (Chinook Therapeutics Canada, Inc., priority 2021, published 2022)
# Columns and labels:
# AMPKα1β1γ1 = molecular target: T1, AMPKα1β1γ1 (Homo sapiens, UniProt Q13131+Q9Y478); experiment: AMPKα1β1γ1 biochemical assay (LabChip EZ Reader mobility shift); settings: EC50 of Table 1; activation, normalized to DMSO vehicle control; read-out: Human AMPK AMPKα1β1γ1 EC50
# T1 construct: purchased Carna Biosciences 02-113
# Protocol: (§1) Compounds disclosed herein were evaluated for their ability to activate AMPKα1β1γ1 by measuring phosphorylation of a commercially available fluorescent AMPK substrate using the LabChip® EZ Reader microfluidic system that is based on a mobility shift principle in which unphosphorylated fluorescent substrates may be separated and distinguished from phosphorylated fluorescent substrates due to the difference in negative charge. Briefly, compounds were serial diluted 3-fold in 100% DMSO for an 11-point dose-response curve. A 20 nL aliquot of diluted compound was transferred into a 384-well plate using a liquid handler (Labcyte Inc., Echo 550). A pre-prepared solution (10 mM MgCl2, 0.01% Brij-35, 2 mM DTT, 0.05% BSA, 1 mM EGTA, and 50 mM HEPES pH 7.5) was combined with 0.83 nM AMPKα1β1γ1 (Carna Biosciences, 02-113). The enzyme solution (15 μL) was aliquoted into each well and the plate was incubated at 24° C. for 30 min. A second stock solution (10 mM MgCl2, 0.01% Brij-35, 2 mM DTT, 0.05% BSA, 1 mM EGTA, 800 μM ATP, and 50 mM HEPES pH 7.5) was combined with 6 μM fluorescent peptide substrate for AMPKal (Perkin Elmer, 760351). The kinase reaction was initiated by adding 5 μL of the second solution containing substrate and ATP to each well. The plate was incubated at 24° C. for 90 minutes and 75 μL of 0.5 M EDTA was added to terminate the reaction. The plates were analyzed using a LabChip® EZ Reader (Perkin Elmer, 122919) and the effective concentration to achieve 50% of the maximal activity (EC50) was calculated after normalizing to the DMSO vehicle control.
# AMPKα1β2γ1 = molecular target: T2, AMPKα1β2γ1 (Homo sapiens, UniProt O43741+Q13131); experiment: AMPKα1β2γ1 biochemical assay (LabChip EZ Reader mobility shift); settings: second EC50 column of Table 1 (head repeats α1β1γ1; text says α1β2γ1 isoform); read-out: Human AMPK AMPKα1β1γ1 EC50
# T2 construct: purchased Carna Biosciences (printed only as 'Biosciences') 02-147
# T2 sequence (Q13131 whole entry, canonical isoform): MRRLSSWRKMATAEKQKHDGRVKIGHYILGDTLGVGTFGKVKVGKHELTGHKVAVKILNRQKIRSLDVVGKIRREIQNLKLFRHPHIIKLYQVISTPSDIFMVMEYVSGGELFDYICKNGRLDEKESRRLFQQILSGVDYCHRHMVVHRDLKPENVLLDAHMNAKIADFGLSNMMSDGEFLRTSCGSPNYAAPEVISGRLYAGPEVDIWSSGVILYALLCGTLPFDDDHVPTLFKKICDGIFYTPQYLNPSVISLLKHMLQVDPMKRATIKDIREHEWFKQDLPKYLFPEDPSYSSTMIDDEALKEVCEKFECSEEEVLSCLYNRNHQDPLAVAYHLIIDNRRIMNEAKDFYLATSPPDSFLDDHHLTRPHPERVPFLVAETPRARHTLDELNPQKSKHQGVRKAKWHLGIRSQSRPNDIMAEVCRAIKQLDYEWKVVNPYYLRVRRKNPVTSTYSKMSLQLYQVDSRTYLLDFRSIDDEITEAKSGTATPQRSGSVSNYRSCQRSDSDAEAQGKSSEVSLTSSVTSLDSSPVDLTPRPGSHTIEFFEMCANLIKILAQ
# T2 sequence (O43741 whole entry, canonical isoform): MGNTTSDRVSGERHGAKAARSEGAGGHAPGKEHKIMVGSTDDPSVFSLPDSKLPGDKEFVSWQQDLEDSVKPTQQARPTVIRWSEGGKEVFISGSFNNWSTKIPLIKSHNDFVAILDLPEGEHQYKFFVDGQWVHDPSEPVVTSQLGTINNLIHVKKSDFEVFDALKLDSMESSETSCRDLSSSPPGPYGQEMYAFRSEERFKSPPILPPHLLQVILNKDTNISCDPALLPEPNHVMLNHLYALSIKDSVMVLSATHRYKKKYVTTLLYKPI
# T2 sequence (P54619 whole entry partner, canonical isoform): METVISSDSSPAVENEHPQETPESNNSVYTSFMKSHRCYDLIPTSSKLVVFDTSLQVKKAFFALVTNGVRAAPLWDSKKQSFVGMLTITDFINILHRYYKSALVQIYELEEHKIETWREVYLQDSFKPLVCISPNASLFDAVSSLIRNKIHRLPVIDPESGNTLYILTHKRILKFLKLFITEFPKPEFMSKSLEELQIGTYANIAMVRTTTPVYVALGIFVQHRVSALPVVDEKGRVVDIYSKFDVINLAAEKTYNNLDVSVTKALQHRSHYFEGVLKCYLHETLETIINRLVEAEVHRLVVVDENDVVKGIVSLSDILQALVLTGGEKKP
# Protocol: as §1
# The same procedure above was also used to measure activation of the AMPKα1β2γ1 isoform, replacing AMPKα1β1γ1 with AMPKα1β2γ1 Biosciences 02-147).
# [1] = system: orthologous mouse model of ADPKD; settings: cited from earlier work
# [2] = system: miniature pig model of ADPKD; settings: cited from earlier work
# high fat diet mice = settings: cited from earlier work
# [3] = system: ZSF1 rat model of diabetic nephropathy; settings: cited from earlier work
# [4] = system: Pkd1 knockout mouse model of ADPKD; settings: orthologous Pkd1 knockout mouse model of ADPKD; cited from earlier work
# Wistar Han rats = settings: 14 days of treatment in Wistar Han rats; cited from earlier work
# [5] = ZSF1 progressive rat model of diabetic nephropathy
# T1 sequence (Q13131 whole entry): as the sequence (Q13131 whole entry, canonical isoform) above
# T1 sequence (Q9Y478 whole entry): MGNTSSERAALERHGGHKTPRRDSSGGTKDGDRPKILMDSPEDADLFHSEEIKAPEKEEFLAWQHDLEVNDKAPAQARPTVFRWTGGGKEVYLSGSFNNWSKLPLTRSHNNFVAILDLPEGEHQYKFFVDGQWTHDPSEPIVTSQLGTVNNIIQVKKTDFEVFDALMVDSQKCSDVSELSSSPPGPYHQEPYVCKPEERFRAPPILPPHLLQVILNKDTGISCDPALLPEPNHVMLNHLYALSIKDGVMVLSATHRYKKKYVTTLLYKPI
# T1 sequence (P54619 whole entry partner): as the sequence (P54619 whole entry partner, canonical isoform) above
EC50 (AMPKα1β1γ1),EC50 (AMPKα1β2γ1),Molecule,other results
≤ 50 nM,> 10000 nM,"COc1nc(N2CC3(CC3)C2)ccc1-c1cc2c(C(=O)O)c[nH]c2cc1Cl [Example 12, 5-[6-(5-azaspiro[2.3]hexan-5-yl)-2-methoxy-3-pyridyl]-6-chloro-1H-indole-3-carboxylic acid]",
≤ 50 nM,> 10000 nM,"COc1nc(N2CC3(CCC3)C2)ccc1-c1cc2c(C(=O)O)c[nH]c2cc1Cl [Example 13, 6-chloro-5-(2-methoxy-6-(2-azaspiro[3.3]heptan-2-yl)pyridin-3-yl)-1H-indole-3-carboxylic acid]",
50 to 100 nM,> 10000 nM,"COc1nc(N2CC3(CCC(=O)N3)C2)ccc1-c1cc2c(C(=O)O)c[nH]c2cc1Cl [Example 17, 6-chloro-5-(2-methoxy-6-(6-oxo-2,5-diazaspiro[3.4]octan-2-yl)pyridin-3-yl)-1H-indole-3-carboxylic acid]",
≤ 50 nM,> 10000 nM,"COc1nc(N2CC3(CCNC3=O)C2)ccc1-c1cc2c(C(=O)O)c[nH]c2cc1Cl [Example 18, 6-chloro-5-(2-methoxy-6-(5-oxo-2,6-diazaspiro[3.4]octan-2-yl)pyridin-3-yl)-1H-indole-3-carboxylic acid]",
≤ 50 nM,> 10000 nM,"COc1nc(N2CC3(CNC(=O)C3)C2)ccc1-c1cc2c(C(=O)O)c[nH]c2cc1Cl [Example 19, 6-chloro-5-(2-methoxy-6-(7-oxo-2,6-diazaspiro[3.4]octan-2-yl)pyridin-3-yl)-1H-indole-3-carboxylic acid]",
≤ 50 nM,> 10000 nM,"COc1nc(N2CC3(CCOC3)C2)ccc1-c1cc2c(C(=O)O)c[nH]c2cc1Cl [Example 21, 6-chloro-5-(2-methoxy-6-(6-oxa-2-azaspiro[3.4]octan-2-yl)pyridin-3-yl)-1H-indole-3-carboxylic acid]",
≤ 50 nM,> 10000 nM,"COc1nc(N2CC3(CC(=O)N(C)C3)C2)ccc1-c1cc2c(C(=O)O)c[nH]c2cc1Cl [Example 22, 6-chloro-5-(2-methoxy-6-(6-methyl-7-oxo-2,6-diazaspiro[3.4]octan-2-yl)pyridin-3-yl)-1H-indole-3-carboxylic acid]",
50 to 100 nM,> 10000 nM,"COc1nc(N2C[C@@H]3[C@H](C2)[C@H]3OC)ccc1-c1cc2c(C(=O)O)c[nH]c2cc1Cl [Example 23, 6-chloro-5-(2-methoxy-6-((trans)-6-methoxy-3-azabicyclo[3.1.0]hexan-3-yl)pyridin-3-yl)-1H-indole-3-carboxylic acid]",
≤ 50 nM,250 to 10000 nM,"COc1nc(N2C[C@@H]3[C@@H](O)[C@@H]3C2)ccc1-c1cc2c(C(=O)O)c[nH]c2cc1Cl [Example 24, 6-chloro-5-(6-((trans)-6-hydroxy-3-azabicyclo[3.1.0]hexan-3-yl)-2-methoxypyridin-3-yl)-1H-indole-3-carboxylic acid]",
50 to 100 nM,> 10000 nM,"COc1nc(N2C[C@H]3COC[C@H]3C2)ccc1-c1cc2c(C(=O)O)c[nH]c2cc1Cl [Example 27, 6-chloro-5-(2-methoxy-6-((cis)-tetrahydro-1H-furo[3,4-c]pyrrol-5(3H)-yl)pyridin-3-yl)-1H-indole-3-carboxylic Acid]",
≤ 50 nM,250 to 10000 nM,"COc1nc(N2C[C@@H]3COC[C@H]3C2)ccc1-c1cc2c(C(=O)O)c[nH]c2cc1Cl [Example 33, 6-chloro-5-(2-methoxy-6-((3aR, 6aR)-tetrahydro-1H-furo[3,4-c]pyrrol-5(3H)-yl)pyridin-3-yl)-1H-indole-3-carboxylic acid]",
≤ 50 nM,250 to 10000 nM,"COc1nc(N2C[C@H]3COC[C@@H]3C2)ccc1-c1cc2c(C(=O)O)c[nH]c2cc1Cl [Example 34, 6-chloro-5-(2-methoxy-6-((3aS,6aS)-tetrahydro-1H-furo[3,4-c]pyrrol-5(3H)-yl)pyridin-3-yl)-1H-indole-3-carboxylic acid]",
≤ 50 nM,250 to 10000 nM,"COc1nc(N2C[C@H]3CN(C(C)=O)C[C@H]3C2)ccc1-c1cc2c(C(=O)O)c[nH]c2cc1Cl [Example 38, 5-(6-((3aR,6aS)-5-acetylhexahydropyrrolo [3,4-c]pyrrol-2(1H)-yl)-2-methoxypyridin-3-yl)-6-chloro-1H-indole-3-carboxylic acid]",
≤ 50 nM,> 10000 nM,"COc1nc(N2CC3(COC3)C2)ccc1-c1c(F)cc2[nH]cc(C(=O)O)c2c1F [Example 41, 4,6-difluoro-5-(2-methoxy-6-(2-oxa-6-azaspiro[3.3]heptan-6-yl)pyridin-3-yl)-1H-indole-3-carboxylic acid]",
,,CN(C)C(=N)N=C(N)N [Metformin],cystic kidney disease [1]: attenuate cystic kidney disease; cystic kidney disease [2]: attenuate cystic kidney disease; high fat diet-induced metabolic derangement and renal injury (high fat diet mice): reduce high fat diet-induced metabolic derangement and renal injury
,,O=C(O)c1c[nH]c2cc(Cl)c(-c3ccc(C4(O)CCC4)cc3)cc12 [PF-06409577],proteinuria ([3]; ZSF1 rat model of diabetic nephropathy): reduced proteinuria
,,O=C(Oc1ccccc1C(=O)O)c1ccccc1O [salsalate],cystic disease severity [4]: attenuate cystic disease severity
,,MK-8722,"proteinuria, glomerular filtration rate, and kidney fibrosis [3, 5]: significant improvements; renal protection [3, 5]: renal protective; cardiac glycogen levels (Wistar Han rats): increased cardiac glycogen levels; cardiac hypertrophy (Wistar Han rats): significant cardiac hypertrophy"
